Tests used:
[1] = tested on: HCV genotype 1a L31V variant with leucine 31 changed to valine in the NS5A protein; assay: microbe, parasite or virus in culture; type: cell-based; details: genotype 1a L31V replicon; test compound titrated with compound N47 fixed at 200 nM versus singly
[2] = tested on: HCV genotype 1a Y93H variant with tyrosine 93 changed to histidine in the NS5A protein; assay: microbe, parasite or virus in culture; type: cell-based; details: genotype 1a Y93H replicon; test compound titrated with compound N47 fixed at 200 nM versus singly
Method: Combinations can be examined for synergistic activity using a variety of putative NS5A-targeting compounds and a variety of test compounds. […] The test compound can be chosen from compounds exemplified below, which were prepared by methods known in the art, or from others disclosed in the literature.
Similarly, BMS-790052 can be tested singly and in combination with a fixed amount of compound N47 in the HCV replicon cell based assay consisting of the genotype 1a Y93H variant with tyrosine 93 changed to histidine in the NS5A protein.

SMILES: C[C@](O)(C(=O)N1CCC[C@H]1c1nc2ccc(-c3ccc(-c4ccc5nc([C@@H]6CCCN6C(=O)[C@](C)(O)c6ccccc6)[nH]c5c4)o3)cc2[nH]1)c1ccccc1
- Fold-Synergistic G-1a (L31V) [1]: <10 fold
- Fold-Synergistic G-1a (Y93H) [2]: <10 fold

SMILES: COC(=O)N[C@H](C(=O)N1C2CC2C[C@H]1c1nc2ccc3cc(C#Cc4ccc5c(ccc6nc([C@@H]7C[C@H]8C[C@H]8N7C(=O)[C@@H](NC(=O)OC)C(C)C)[nH]c65)c4)ccc3c2[nH]1)C(C)C (some centres unmarked)
- Fold-Synergistic G-1a (L31V) [1]: <10 fold
- Fold-Synergistic G-1a (Y93H) [2]: >100 fold

SMILES: COC(=O)N[C@H](C(=O)N1[C@@H]2C[C@@H]2C[C@H]1c1nc2ccc(C#CC#Cc3ccc4nc([C@@H]5C[C@H]6C[C@H]6N5C(=O)[C@@H](NC(=O)OC)C(C)C)[nH]c4c3)cc2[nH]1)C(C)C
- Fold-Synergistic G-1a (L31V) [1]: >10 fold
- Fold-Synergistic G-1a (Y93H) [2]: >100 fold

SMILES: COC(=O)N[C@H]1CCC[C@H]2CC[C@@H](c3nc(-c4ccc(-c5ccc(-c6c[nH]c([C@@H]7CC[C@@H]8CCC[C@H](NC(=O)OC)C(=O)N87)n6)cc5)cc4)c[nH]3)N2C1=O
- Fold-Synergistic G-1a (L31V) [1]: <10 fold
- Fold-Synergistic G-1a (Y93H) [2]: <10 fold

SMILES: C[C@H](NC(=O)[C@@H](O)c1ccccc1)C(=O)Nc1ccc(-c2cnc(-c3ccc(NC(=O)[C@H](C)NC(=O)[C@@H](O)c4ccccc4)cc3)o2)cc1
- Fold-Synergistic G-1a (L31V) [1]: <10 fold
- Fold-Synergistic G-1a (Y93H) [2]: <10 fold

SMILES: COC(=O)N[C@H](C(=O)N1[C@@H]2C[C@@H]2C[C@H]1c1ncc(-c2ccc(C#Cc3ccc(-c4cnc([C@@H]5C[C@H]6C[C@H]6N5C(=O)[C@@H](NC(=O)OC)C(C)C)[nH]4)cc3)cc2)[nH]1)C(C)C
- Fold-Synergistic G-1a (L31V) [1]: <10 fold
- Fold-Synergistic G-1a (Y93H) [2]: >10 fold

SMILES: COC(=O)N[C@H](C(=O)N1CCCC[C@H]1c1nc(-c2ccc(-c3ccc4cc(-c5c[nH]c([C@@H]6CCCCN6C(=O)[C@@H](NC(=O)OC)C(C)C)n5)ccc4c3)cc2)c[nH]1)C(C)C
- Fold-Synergistic G-1a (L31V) [1]: >10 fold
- Fold-Synergistic G-1a (Y93H) [2]: <10 fold

SMILES: Cc1nc(-c2ccc(NC(=O)[C@@H]3CCCN3C(=O)Cc3ccccc3)cc2)c(-c2ccc(NC(=O)[C@@H]3CCCN3C(=O)Cc3ccccc3)cc2)s1
- Fold-Synergistic G-1a (L31V) [1]: <10 fold
- Fold-Synergistic G-1a (Y93H) [2]: <10 fold

SMILES: COc1ccc(-c2ccc(-c3cnc([C@@H]4CCCN4C(=O)[C@@H](c4ccccc4)N(C)C)[nH]3)cc2)cc1-c1cnc([C@@H]2CCCN2C(=O)[C@@H](c2ccccc2)N(C)C)[nH]1
- Fold-Synergistic G-1a (L31V) [1]: <10 fold
- Fold-Synergistic G-1a (Y93H) [2]: <10 fold

SMILES: COC(=O)NC(C(=O)N1[C@@H](C)CC[C@H]1c1nc2ccc3cc(C#CC#Cc4ccc5c(ccc6nc([C@@H]7CC[C@H](C)N7C(=O)C(NC(=O)OC)C7CCOCC7)[nH]c65)c4)ccc3c2[nH]1)C1CCOCC1 (some centres unmarked)
- Fold-Synergistic G-1a (L31V) [1]: <10 fold
- Fold-Synergistic G-1a (Y93H) [2]: <10 fold

SMILES: COC(=O)N[C@H](C(=O)N1[C@@H]2C[C@@H]2C[C@H]1c1nc2ccc(-c3ccc(-c4ccc5nc([C@@H]6C[C@H]7C[C@H]7N6C(=O)[C@@H](NC(=O)OC)C(C)C)[nH]c5c4)cc3)cc2[nH]1)C(C)C
- Fold-Synergistic G-1a (L31V) [1]: >10 fold
- Fold-Synergistic G-1a (Y93H) [2]: >100 fold

SMILES: COC(=O)N[C@@H](C)C(=O)N1[C@@H]2CC[C@@H](C2)[C@H]1c1nc(-c2ccc(-c3ccc(-c4cnc([C@@H]5[C@H]6CC[C@H](C6)N5C(=O)[C@H](C)NC(=O)OC)[nH]4)cc3)cc2)c[nH]1
- Fold-Synergistic G-1a (L31V) [1]: >10 fold
- Fold-Synergistic G-1a (Y93H) [2]: <10 fold

SMILES: COC(=O)N[C@H](C(=O)N1CC[C@H](C)[C@H]1c1ncc(-c2ccc(-c3ccc(-c4cnc([C@@H]5[C@@H](C)CCN5C(=O)[C@@H](NC(=O)OC)C(C)C)[nH]4)cc3)cc2)[nH]1)C(C)C
- Fold-Synergistic G-1a (L31V) [1]: >100 fold
- Fold-Synergistic G-1a (Y93H) [2]: >100 fold

SMILES: COC(=O)N[C@H](C(=O)N1[C@@H]2C[C@@H]2C[C@H]1c1ncc(-c2cccc(-c3ccc4cc(-c5cnc([C@H]6C[C@@H]7C[C@@H]7N6C(=O)[C@@H](NC(=O)OC)C(C)C)[nH]5)ccc4c3)c2)[nH]1)C(C)C
- Fold-Synergistic G-1a (L31V) [1]: <10 fold
- Fold-Synergistic G-1a (Y93H) [2]: >10 fold

SMILES: COC(=O)N[C@H](C(=O)N1[C@@H](C)CC[C@H]1c1ncc(-c2ccc(-c3ccc4cc(-c5cnc([C@@H]6CC[C@H](C)N6C(=O)[C@@H](NC(=O)OC)C6CCOCC6)[nH]5)ccc4c3)cc2)[nH]1)C1CCOCC1
- Fold-Synergistic G-1a (L31V) [1]: <10 fold
- Fold-Synergistic G-1a (Y93H) [2]: >10 fold

SMILES: COC(=O)N[C@H](C(=O)N1CCOC[C@H]1c1ncc(-c2ccc(-c3ccc(-c4cnc([C@@H]5COCCN5C(=O)[C@@H](NC(=O)OC)C(C)C)[nH]4)cc3)cc2)[nH]1)C(C)C
- Fold-Synergistic G-1a (L31V) [1]: >100 fold
- Fold-Synergistic G-1a (Y93H) [2]: >100 fold

SMILES: CN(C)[C@@H](C(=O)Nc1cccc(-c2ncc(-c3ccc4nc([C@@H]5CCCN5C(=O)[C@@H](c5ccccc5)N(C)C)[nH]c4c3)o2)c1)c1ccccc1
- Fold-Synergistic G-1a (L31V) [1]: <10 fold
- Fold-Synergistic G-1a (Y93H) [2]: <10 fold

SMILES: COC(=O)N[C@H](C(=O)N1[C@@H]2C[C@@H]2C[C@H]1c1ncc(-c2ccc3cc(-c4ccc5[nH]c([C@@H]6C[C@H]7C[C@H]7N6C(=O)[C@@H](NC(=O)OC)C(C)C)nc5c4)ccc3c2)[nH]1)C(C)C
- Fold-Synergistic G-1a (L31V) [1]: >100 fold
- Fold-Synergistic G-1a (Y93H) [2]: >100 fold

SMILES: COC(=O)N[C@H](C(=O)N1[C@@H](C)CC[C@H]1c1ncc(-c2ccc3c(c2)Cc2cc(-c4cnc([C@@H]5CC[C@H](C)N5C(=O)[C@@H](NC(=O)OC)C(C)C)[nH]4)ccc2-3)[nH]1)C(C)C
- Fold-Synergistic G-1a (L31V) [1]: >100 fold
- Fold-Synergistic G-1a (Y93H) [2]: >100 fold

SMILES: COC(=O)N[C@H](C(=O)N1CCC[C@H]1c1ncc(C#Cc2ccc(-c3ccc4nc([C@@H]5CCCN5C(=O)[C@@H](NC(=O)OC)C(C)C)[nH]c4c3)cc2)[nH]1)C(C)C
- Fold-Synergistic G-1a (L31V) [1]: >100 fold
- Fold-Synergistic G-1a (Y93H) [2]: >100 fold

SMILES: CN(C)[C@@H](C(=O)N1CCCC[C@H]1c1ncc(-c2ccc(-c3ccc(-c4cnc([C@@H]5CCCCN5C(=O)[C@@H](c5ccccc5)N(C)C)[nH]4)cc3)cc2)[nH]1)c1ccccc1
- Fold-Synergistic G-1a (L31V) [1]: <10 fold
- Fold-Synergistic G-1a (Y93H) [2]: >10 fold

SMILES: COC(=O)N[C@H](C(=O)N1C2CC2CC[C@H]1c1ncc(-c2ccc(-c3ccc(-c4cnc([C@@H]5CCC6CC6N5C(=O)[C@@H](NC(=O)OC)C(C)C)[nH]4)cc3)cc2)[nH]1)C(C)C (some centres unmarked) [drawing 2291]
- Fold-Synergistic G-1a (L31V) [1]: >100 fold
- Fold-Synergistic G-1a (Y93H) [2]: >100 fold

SMILES: COC(=O)N[C@H](C(=O)N1CCC[C@H]1C(=O)NC1Cc2ccc(-c3ccc4c(c3)CC(NC(=O)[C@@H]3CCCN3C(=O)[C@@H](NC(=O)OC)C(C)C)C4)cc2C1)C(C)C (some centres unmarked)
- Fold-Synergistic G-1a (L31V) [1]: >10 fold
- Fold-Synergistic G-1a (Y93H) [2]: >10 fold

SMILES: O=C(OCc1ccccc1)N1C[C@H](O)C[C@H]1c1nc2cc(C#Cc3ccc4[nH]c([C@@H]5C[C@@H](O)CN5C(=O)OCc5ccccc5)nc4c3)ccc2[nH]1
- Fold-Synergistic G-1a (L31V) [1]: <10 fold
- Fold-Synergistic G-1a (Y93H) [2]: <10 fold

SMILES: COC(=O)N[C@H](C(=O)N1CCC[C@H]1c1ncc(-c2ccc(-c3ccc4cc(-c5cnc([C@@H]6CCCN6C(=O)[C@@H](NC(=O)OC)C6CCOCC6)[nH]5)ccc4c3)cc2)[nH]1)C1CCOCC1
- Fold-Synergistic G-1a (L31V) [1]: <10 fold
- Fold-Synergistic G-1a (Y93H) [2]: >10 fold

SMILES: COC(=O)N[C@H](C(=O)N1[C@@H]2C[C@@H]2C[C@H]1c1ncc(-c2ccc(C#Cc3ccc(-c4cnc([C@@H]5C[C@H]6C[C@H]6N5C(=O)[C@@H](NC(=O)OC)C(C)C)[nH]4)cc3C)c(C)c2)[nH]1)C(C)C
- Fold-Synergistic G-1a (L31V) [1]: <10 fold
- Fold-Synergistic G-1a (Y93H) [2]: <10 fold

SMILES: CN(C)[C@@H](C(=O)N1CCC[C@H]1C(=O)Nc1ccc(C#Cc2ccc(NC(=O)[C@@H]3CCCN3C(=O)[C@@H](c3ccccc3)N(C)C)cc2)cc1)c1ccccc1
- Fold-Synergistic G-1a (L31V) [1]: <10 fold
- Fold-Synergistic G-1a (Y93H) [2]: <10 fold

SMILES: O=C(Cc1ccccc1)N1CCC[C@H]1c1nc2ccc(-c3cnc([C@@H]4CCCN4C(=O)Cc4ccccc4)o3)cc2[nH]1
- Fold-Synergistic G-1a (L31V) [1]: <10 fold
- Fold-Synergistic G-1a (Y93H) [2]: <10 fold

SMILES: COC(=O)N[C@@H](C(=O)N1CCC[C@H]1c1nc(-c2ccc(Oc3cccc(-c4cnc([C@@H]5CCCN5C(=O)[C@H](NC(=O)OC)c5ccccc5)[nH]4)c3)cc2)c[nH]1)c1ccccc1
- Fold-Synergistic G-1a (L31V) [1]: <10 fold
- Fold-Synergistic G-1a (Y93H) [2]: <10 fold

SMILES: COC(=O)N[C@H](C(=O)N1CCC[C@H]1c1ncc(-c2ccc(-c3ccc4cc(-c5cnc([C@@H]6CCCN6C(=O)[C@@H](NC(=O)OC)C(C)C)[nH]5)ccc4c3)cc2)[nH]1)C(C)C
- Fold-Synergistic G-1a (L31V) [1]: <10 fold
- Fold-Synergistic G-1a (Y93H) [2]: >10 fold

SMILES: COC(=O)N[C@H](C(=O)N1[C@H](C)CC[C@H]1c1ncc(-c2ccc(-c3ccc(-c4cnc([C@@H]5CC[C@@H](C)N5C(=O)[C@@H](NC(=O)OC)C(C)C)[nH]4)cc3)cc2)[nH]1)C(C)C
- Fold-Synergistic G-1a (L31V) [1]: >100 fold
- Fold-Synergistic G-1a (Y93H) [2]: >100 fold

SMILES: COC(=O)N[C@@H](C(=O)N1CCC[C@H]1c1nc2cc(-c3ccc(-c4ccc5c(ccc6[nH]c([C@@H]7CCCN7C(=O)[C@H](NC(=O)OC)c7ccccc7)nc65)c4)cc3)ccc2[nH]1)c1ccccc1
- Fold-Synergistic G-1a (L31V) [1]: <10 fold
- Fold-Synergistic G-1a (Y93H) [2]: <10 fold

SMILES: COC(=O)N[C@H](C(=O)N1[C@@H]2C[C@@H]2C[C@H]1c1nc(-c2ccc3oc(-c4ccc(-c5cnc([C@@H]6C[C@H]7C[C@H]7N6C(=O)[C@@H](NC(=O)OC)C6CCOCC6)[nH]5)cc4)cc3c2)c[nH]1)C1CCOCC1
- Fold-Synergistic G-1a (L31V) [1]: <10 fold
- Fold-Synergistic G-1a (Y93H) [2]: <10 fold

SMILES: COc1cccc2c(C(=O)N3CCC[C@H]3c3nc4ccc(-c5cnc(-c6cccc(O)c6)o5)cc4[nH]3)nc(Cl)cc12
- Fold-Synergistic G-1a (L31V) [1]: <10 fold
- Fold-Synergistic G-1a (Y93H) [2]: <10 fold

Source: US20160158200A1, “Combinations of Hepatitis C Virus Inhibitors” (priority 2013, published 2016)
